Data on 10 compounds can be found in PubChem BioAssay (NCI).

Among the test systems are SF-268 CNS; HS 578T breast; SK-MEL-2 melanoma; HOP-92 NSCLC; A498 renal; HCT-116 colon; UACC-62 melanoma; RXF 393 renal.
What all share (assay): DTP human tumour cell line panel, 48 h

“And” between values parts separate entries of the source, which are not always exact repeats. Equal values may be shown once.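 All cell lines were grown in 96-well plates and treated with compound for 48 hours. GI50 marks 50% less growth. TGI: concentration producing complete growth inhibition.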

Consider `COc1cc(C(=O)c2cnc(-c3c[nH]c4cccc(C)c34)[nH]2)cc(OC)c1OC`, for which the 50% growth inhibitory concentration (GI50) in the assay on SF-268 CNS is 0.00862 µM; with HS 578T breast it was 0.00655 µM; with SK-MEL-2 melanoma, 0.00745 µM; with A498 renal, 0.00176 µM; with HCT-116 colon it was 0.00346 µM; in the assay with UACC-62 melanoma, 0.0044 µM. For the same compound, the concentration for total growth inhibition (TGI) in the assay with SF-268 CNS was above 100 µM; with HS 578T breast it was above 100 µM; in the assay with SK-MEL-2 melanoma it was 30.7 µM; with HOP-92 NSCLC, 18.3 µM; with A498 renal, 0.00774 µM; in the assay on HCT-116 colon, 11.1 µM. In addition, the TGI in the assay with UACC-62 melanoma is above 100 µM.

Regarding `O=C(/C=C/c1ccc(O)c(O)c1)N1CCN(c2ccc(Cl)cc2)CC1`, the GI50 with SF-268 CNS is 4.92 µM; in the assay on HS 578T breast it was 8.04 µM; with SK-MEL-2 melanoma, 12.1 µM; in the assay with HOP-92 NSCLC it was 2.42 µM; with A498 renal, 2.5 µM; with HCT-116 colon it was 5.18 µM. The GI50 in the assay on UACC-62 melanoma is 6.36 µM. The total growth inhibition concentration (TGI) with SF-268 CNS stood at 42.6 µM; in the assay with HS 578T breast, 49.4 µM; in the assay with SK-MEL-2 melanoma, 31.9 µM; in the assay with HOP-92 NSCLC, 23.4 µM; in the assay with A498 renal, 16.4 µM; with HCT-116 colon, 19.8 µM. The same compound had a total growth inhibition concentration (TGI) in the assay with UACC-62 melanoma of 23.3 µM.

Consider `C=CCC(N[C@@H](CO)c1ccccc1)c1ccc2ccccc2n1` (some centres not stated), for which the GI50 with HS 578T breast is above 100 µM; with SK-MEL-2 melanoma, above 100 µM; with A498 renal it was 93.2 µM; with HCT-116 colon, above 100 µM; in the assay on RXF 393 renal it was above 100 µM; in the assay with UACC-62 melanoma, above 100 µM. In addition, the TGI in the assay on HS 578T breast, in the assay on SK-MEL-2 melanoma, with A498 renal, in the assay with HCT-116 colon, with RXF 393 renal and in the assay with UACC-62 melanoma was above 100 µM each time.

In the case of `CCn1c(-c2nonc2N)nc2ccccc21`, the GI50 with SF-268 CNS was above 25 µM; in the assay with HS 578T breast it was above 22.3 µM; with SK-MEL-2 melanoma, above 25 µM; with HOP-92 NSCLC, 17 µM; in the assay with A498 renal, above 25 µM; with HCT-116 colon, above 25 µM. Besides, the results for the GI50 in the assay with RXF 393 renal and in the assay on UACC-62 melanoma were 16.7 µM and above 25 µM, respectively. In addition, the TGI with SF-268 CNS, in the assay with HS 578T breast, with SK-MEL-2 melanoma, in the assay with HOP-92 NSCLC, in the assay on A498 renal and in the assay with HCT-116 colon was above 25 µM each time. Moreover, the TGI with RXF 393 renal and in the assay on UACC-62 melanoma was above 25 µM throughout.

Turning to `O=C1C(Cl)=C(Nc2ccc(S(=O)(=O)c3ccc(NC4=C(Cl)C(=O)c5ccccc5C4=O)cc3)cc2)C(=O)c2ccccc21`, the GI50 is 1.82 µM with HS 578T breast; 1.96 µM in the assay with HOP-92 NSCLC; 3.72 µM with A498 renal; 1.2 µM in the assay on HCT-116 colon; 1.6 µM in the assay on RXF 393 renal; 1.66 µM in the assay with UACC-62 melanoma. The TGI is 5.85 µM in the assay with HS 578T breast; 3.44 µM in the assay with HOP-92 NSCLC; 16.2 µM in the assay with A498 renal; 2.49 µM in the assay with HCT-116 colon; 2.96 µM in the assay with RXF 393 renal; 3.18 µM in the assay with UACC-62 melanoma.

On to `CCCCNc1ncnc2c1cnn2-c1ccccc1`, for which the GI50 was 9.78 µM with SF-268 CNS; 3.48 µM in the assay with HS 578T breast; 2.82 µM in the assay on SK-MEL-2 melanoma; 3.21 µM with HOP-92 NSCLC; 4.32 µM in the assay on A498 renal; 1.32 µM in the assay on HCT-116 colon. For the same compound, the GI50 was 1.97 µM with RXF 393 renal and 5.04 µM with UACC-62 melanoma. Besides, the TGI is above 84.5 µM with SF-268 CNS; 58.2 µM in the assay with HS 578T breast; above 100 µM in the assay on SK-MEL-2 melanoma; 55.6 µM with HOP-92 NSCLC; above 100 µM in the assay with A498 renal; above 100 µM in the assay with HCT-116 colon. The total growth inhibition concentration (TGI) was 8.26 µM in the assay with RXF 393 renal and above 100 µM with UACC-62 melanoma.

Take `CCCCCCCCCCCC/C=C\CC[C@@H](O)[C@H](O)CC[C@H](O)[C@@H]1CC[C@@H](CCCCCCCC2=C[C@H](C)OC2=O)O1`: the GI50 with SF-268 CNS is 14.2 µM; with SK-MEL-2 melanoma, 12.6 µM; with HOP-92 NSCLC it was 17.4 µM; with A498 renal it was 16.4 µM; with HCT-116 colon, 0.231 µM. Besides, the TGI in the assay on SF-268 CNS is 38 µM; in the assay on SK-MEL-2 melanoma, 33.4 µM; in the assay with HOP-92 NSCLC, 8.69 µM and 55.2 µM; with A498 renal, 36.6 µM; in the assay on HCT-116 colon, 27.1 µM; in the assay with RXF 393 renal it was 37.8 µM. Also, in the assay with UACC-62 melanoma, the TGI is 6.45 µM.

Consider `Fc1ccccc1CN1COc2c(cc(Cl)c3cccnc23)C1`, for which the TGI amounted to 20.3 µM in the assay with SF-268 CNS; 20.8 µM in the assay with HS 578T breast; 19.1 µM in the assay on SK-MEL-2 melanoma; 16.8 µM in the assay on HOP-92 NSCLC; 13.2 µM in the assay on HCT-116 colon; 63.6 µM with RXF 393 renal. In the assay with UACC-62 melanoma, this compound displayed a TGI of 1.74 µM.

For `Cc1cc(NC(=O)NCc2ccc(N3C(N)=NC(N)=NC3(C)C)cc2)ccc1S(=O)(=O)F`, the GI50 in the assay on SF-268 CNS was 0.682 µM; in the assay on HS 578T breast, above 48.7 µM; in the assay on SK-MEL-2 melanoma, 45 µM; with HOP-92 NSCLC it was 23.2 µM; with A498 renal it was above 46.4 µM; in the assay with HCT-116 colon, 0.429 µM. For the same compound, the GI50 in the assay with RXF 393 renal is 51.2 µM; in the assay with UACC-62 melanoma it was 0.998 µM. The TGI in the assay with SF-268 CNS is above 88 µM; with HS 578T breast, above 100 µM; with SK-MEL-2 melanoma, above 100 µM; in the assay with HOP-92 NSCLC, above 100 µM; in the assay with A498 renal it was above 100 µM; with HCT-116 colon it was above 100 µM. For the same compound, the TGI in the assay with RXF 393 renal and with UACC-62 melanoma was above 100 µM throughout.

On to `Cc1cc(N2CCC(N3CCCC3)CC2)nc(/N=C(\N)Nc2ccc(Cl)c(Cl)c2)n1`, for which the GI50 in the assay with SF-268 CNS was 2.34 µM; in the assay on HS 578T breast, 1.91 µM; with SK-MEL-2 melanoma, 2.11 µM; with A498 renal it was 1.94 µM; with HCT-116 colon, 1.93 µM; in the assay on RXF 393 renal it was 1.62 µM. In addition, the GI50 in the assay with UACC-62 melanoma is 1.9 µM. In addition, the TGI with SF-268 CNS is 6.66 µM; in the assay on HS 578T breast it was 5.06 µM; with SK-MEL-2 melanoma, 3.85 µM; in the assay on A498 renal, 3.94 µM; in the assay on HCT-116 colon, 3.63 µM; in the assay on RXF 393 renal it was 3.09 µM. The same compound came in with a TGI in the assay on UACC-62 melanoma of 3.6 µM.

What is called GI50 is the concentration giving 50% growth inhibition. One may read the TGI as the concentration giving total growth inhibition.
